Test results published in article PMC3224403 (Indian Journal of Pharmaceutical Sciences, 2011).

Tests used:
Type in all cases: in vivo
[1] = tested on: maximum electroshock seizure; experiment: Maximum electroshock seizure; conditions: dose 200 mg/Kg b.w. (5e, 5f: 150); Fischer's exact test
[2] = tested on: carrageenan-induced rat paw edema; experiment: Carrageenan-induced rat paw edema method
[3] = tested on: cotton pellet induced granulation tissue formation; experiment: Cotton pellet induced granulation tissue formation method; conditions: dose 200 mg/Kg b.w. (5e, 5f: 150)
adrenal weight = experiment: Adrenal weight change method; conditions: suppression of adrenal weights; dose 200 mg/Kg b.w. (5e, 5f: 150)
ulcers = experiment: Ulcerogenecity, arbitrary ulcer scoring system; conditions: dose 200 mg/Kg b.w. (5e, 5f: 150); p in parentheses
[4] = tested on: radiant heat induced rat tail flick; experiment: Radiant heat induced rat tail flick method; conditions: dose 200 mg/Kg b.w. (5e, 5f: 150)

SMILES | Anticonvulsant activity, MES protection [1] [%] | Antiinflammatory activity Percentage Inhibition, Carrageenan method, 1 h ([2]; 1 h, dose 200 mg/Kg b.w. (5e, 5f: 150)) [%] | Antiinflammatory activity Percentage Inhibition, Carrageenan method, 3 h ([2]; 3 h, dose 200 mg/Kg b.w. (5e, 5f: 150)) [%] | Antiinflammatory activity, carrageenan-induced rat paw edema, after 6 h ([2]; 6 h as printed in the text) [%] | Antiinflammatory activity Percentage Inhibition, Cotton pellet method [3] [%] | Antiinflammatory activity Percentage Inhibition, Adrenal weight method (adrenal weight) [%] | Ulcer index (ulcers) | Analgesic activity percent protection, Rat tail flick method [4] [%]
O=C1NC(=O)C(c2ccccc2)(c2ccccc2)N1 [phenytoin sodium] | 100 |  |  |  |  |  |  | 
CC(=O)Oc1ccccc1C(=O)O [aspirin] |  | 54.84 | 55.05 | 73.81 | 41.88 | 50.13 | 43.33 | 49.39
